Experimental data: paper doi:10.1101/2024.08.21.608984v2 (biorxiv, 2025)

Experiments:
GluN1/GluN2B NMDAR = GluN1/GluN2B NMDAR (Homo sapiens, UniProt Q05586+Q13224, Q05586:Y647S); experiment: two-electrode voltage clamp, Xenopus oocytes; format: cell-based
GluN1/GluN2A NMDAR = GluN1/GluN2A NMDAR (Homo sapiens, UniProt Q05586+Q12879, Q05586:Y647S); experiment: two-electrode voltage clamp, Xenopus oocytes; format: cell-based
Sequence of GluN1/GluN2A NMDAR (Q12879 23-1464, other chains not shown): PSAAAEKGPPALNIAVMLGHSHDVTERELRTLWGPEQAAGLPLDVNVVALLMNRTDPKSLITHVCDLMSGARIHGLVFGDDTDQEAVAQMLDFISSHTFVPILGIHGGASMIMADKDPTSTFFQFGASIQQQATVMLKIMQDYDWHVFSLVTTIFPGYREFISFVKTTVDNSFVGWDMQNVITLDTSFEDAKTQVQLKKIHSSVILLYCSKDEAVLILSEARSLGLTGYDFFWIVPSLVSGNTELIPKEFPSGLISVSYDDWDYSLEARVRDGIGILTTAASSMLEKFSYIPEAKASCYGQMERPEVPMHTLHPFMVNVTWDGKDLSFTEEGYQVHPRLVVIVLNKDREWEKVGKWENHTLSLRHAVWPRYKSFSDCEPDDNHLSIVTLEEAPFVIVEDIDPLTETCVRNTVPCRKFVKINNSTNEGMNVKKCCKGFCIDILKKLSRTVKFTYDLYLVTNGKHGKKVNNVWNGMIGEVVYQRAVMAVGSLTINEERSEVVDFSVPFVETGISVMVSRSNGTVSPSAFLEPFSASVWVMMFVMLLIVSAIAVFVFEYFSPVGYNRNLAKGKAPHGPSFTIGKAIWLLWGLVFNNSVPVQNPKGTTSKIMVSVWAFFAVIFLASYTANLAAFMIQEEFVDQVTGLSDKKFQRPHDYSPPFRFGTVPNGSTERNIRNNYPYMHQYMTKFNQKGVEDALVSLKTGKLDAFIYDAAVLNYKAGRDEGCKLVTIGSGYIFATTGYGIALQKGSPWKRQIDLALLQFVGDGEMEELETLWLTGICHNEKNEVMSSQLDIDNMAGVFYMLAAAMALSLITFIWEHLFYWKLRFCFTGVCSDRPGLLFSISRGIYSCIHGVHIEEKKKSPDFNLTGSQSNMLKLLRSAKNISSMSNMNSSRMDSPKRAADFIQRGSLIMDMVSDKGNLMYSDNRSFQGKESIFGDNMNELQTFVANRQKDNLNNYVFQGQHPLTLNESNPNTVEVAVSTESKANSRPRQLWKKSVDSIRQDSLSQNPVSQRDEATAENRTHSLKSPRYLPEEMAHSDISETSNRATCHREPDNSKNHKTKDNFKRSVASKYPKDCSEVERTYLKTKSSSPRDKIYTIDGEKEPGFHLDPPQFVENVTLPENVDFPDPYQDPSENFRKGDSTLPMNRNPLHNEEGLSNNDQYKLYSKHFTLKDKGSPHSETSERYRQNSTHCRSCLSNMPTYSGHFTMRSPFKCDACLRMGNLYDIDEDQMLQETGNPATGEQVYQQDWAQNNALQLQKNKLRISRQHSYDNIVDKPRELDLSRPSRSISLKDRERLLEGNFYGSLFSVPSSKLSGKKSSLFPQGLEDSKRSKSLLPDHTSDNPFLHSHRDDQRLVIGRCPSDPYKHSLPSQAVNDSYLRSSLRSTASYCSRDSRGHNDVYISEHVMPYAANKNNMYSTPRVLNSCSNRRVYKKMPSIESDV

Sequence of GluN1/GluN2B NMDAR (Q13224 27-1484, other chains not shown): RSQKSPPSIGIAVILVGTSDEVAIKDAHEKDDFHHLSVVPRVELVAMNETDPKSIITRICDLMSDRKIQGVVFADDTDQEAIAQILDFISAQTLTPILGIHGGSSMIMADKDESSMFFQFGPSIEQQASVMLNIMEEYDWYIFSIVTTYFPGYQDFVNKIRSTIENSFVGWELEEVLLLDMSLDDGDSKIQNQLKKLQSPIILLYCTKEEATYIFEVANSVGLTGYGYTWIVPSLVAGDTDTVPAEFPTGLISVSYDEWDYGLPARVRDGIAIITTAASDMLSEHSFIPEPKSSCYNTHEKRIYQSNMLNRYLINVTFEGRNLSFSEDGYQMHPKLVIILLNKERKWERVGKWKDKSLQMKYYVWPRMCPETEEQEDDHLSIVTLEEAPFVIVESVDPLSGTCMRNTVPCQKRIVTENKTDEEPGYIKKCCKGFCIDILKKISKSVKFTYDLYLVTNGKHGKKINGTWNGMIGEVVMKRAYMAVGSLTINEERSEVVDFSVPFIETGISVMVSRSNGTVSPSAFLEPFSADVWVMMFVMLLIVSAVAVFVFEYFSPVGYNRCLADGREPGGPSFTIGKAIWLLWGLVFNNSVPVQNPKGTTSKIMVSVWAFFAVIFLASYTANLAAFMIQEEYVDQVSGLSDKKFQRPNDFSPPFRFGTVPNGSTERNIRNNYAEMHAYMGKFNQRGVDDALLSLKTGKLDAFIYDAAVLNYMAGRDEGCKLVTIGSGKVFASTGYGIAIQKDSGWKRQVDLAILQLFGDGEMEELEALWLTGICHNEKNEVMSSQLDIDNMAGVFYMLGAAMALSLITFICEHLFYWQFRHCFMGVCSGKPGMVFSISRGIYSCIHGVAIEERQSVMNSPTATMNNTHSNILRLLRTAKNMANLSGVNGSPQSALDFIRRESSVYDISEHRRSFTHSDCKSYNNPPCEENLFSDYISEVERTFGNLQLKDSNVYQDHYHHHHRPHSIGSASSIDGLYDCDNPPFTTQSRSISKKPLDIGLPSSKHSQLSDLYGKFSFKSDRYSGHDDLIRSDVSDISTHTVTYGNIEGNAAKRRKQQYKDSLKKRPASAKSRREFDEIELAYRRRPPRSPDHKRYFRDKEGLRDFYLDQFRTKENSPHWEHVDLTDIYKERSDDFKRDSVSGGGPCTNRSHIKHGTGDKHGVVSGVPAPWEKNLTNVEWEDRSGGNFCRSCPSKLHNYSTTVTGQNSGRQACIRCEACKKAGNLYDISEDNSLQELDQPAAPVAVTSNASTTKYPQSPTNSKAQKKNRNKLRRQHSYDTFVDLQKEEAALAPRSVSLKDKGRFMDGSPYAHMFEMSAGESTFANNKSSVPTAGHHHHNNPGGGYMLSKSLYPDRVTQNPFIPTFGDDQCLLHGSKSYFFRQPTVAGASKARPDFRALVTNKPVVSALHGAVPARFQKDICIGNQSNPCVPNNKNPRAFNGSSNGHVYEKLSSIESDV

EC50 (GluN1/GluN2B NMDAR): 17 nM | EC50 (GluN1/GluN2A NMDAR): 36 nM
Compound: NCC(=O)O [glycine]
